Assay [1] deals with full length SMN2 minigene mRNA (HEK293H cells stably transfected with SMN2-A minigene). The assay can be described thus: RT-qPCR assay for SMN2 minigene pre-mRNA splicing in cultured cells. The format is cell-based. The following applies: Homo sapiens, HEK293-H, 24 hours.
For assay [2], the system named is SMN protein in SMA patient fibroblast cells (GM03813). The assay can be described thus: SMN protein assay (HTRF) in cultured cells. The format is cell-based. The following applies: Homo sapiens, SMA Type 1 patient fibroblasts, 48 hours; for EC (1.5-fold): concentration producing 1.5 times SMN protein vs vehicle, read-out: EC1.5x SMN protein; for maximal fold induction: relative to vehicle control, read-out: max. fold increase of SMN protein. As for the experimental part: The SMN HTRF (homogeneous time resolved fluorescence) assay is used to quantify the level of SMN protein in SMA patient fibroblast cells treated with test compounds. Materials used and respective sources are listed below in Table 4.
Cells are thawed and cultured in DMEM-10% FBS for 72 hours. Cells are trypsinized, counted and re-suspended to a concentration of 25,000 cells/mL in DMEM-10% FBS. The cell suspensions are plated at 5,000 cells per well in a 96 well microtiter plate and incubated for […]. […] 1 μL of test compound solution is transferred to cell-containing wells and cells are incubated for 48 hours in a cell culture incubator (37° C., 5% CO2, 100% relative humidity). Triplicate samples are set up for each test compound concentration. After 48 hours, the supernatant is removed from the wells and 25 μL of the RIPA lysis buffer, containing protease inhibitors, is added to the wells and incubated with shaking at room temperature for 1 hour. 25 μL of the diluent is added and then 35 μL of the resulting lysate is transferred to a 384-well plate, where each well contains 5 μL of the antibody solution (1:100 dilution of anti-SMN d2 and anti-SMN cryptate in SMN reconstitution buffer). The plate is centrifuged for 1 minute to bring the solution to the bottom of the wells, then incubated overnight at room temperature. Fluorescence for each well of the plate at 665 nm and 620 nm is measured on an EnVision multilabel plate reader (Perkin-Elmer).
The normalized fluorescence signal is calculated for each sample, Blank and vehicle control well by dividing the signal at 665 nm by the signal at 620 nm. Normalizing the signal accounts for possible fluorescence quenching due to the matrix effect of the lysate. The ΔF value (a measurement of SMN protein abundance as a percent value) for each sample well is calculated by subtracting the normalized average fluorescence for the Blank control wells from the normalized fluorescence for each sample well, then dividing this difference by the normalized average fluorescence for the Blank control wells and multiplying the resulting value by 100. The ΔF value for each sample well represents the SMN protein abundance from test compound-treated samples. The ΔF value for each sample well is divided by the ΔF value for the vehicle control wells to calculate the fold increase in SMN protein abundance relative to the vehicle control. Table 5 provides EC1-5× concentrations for SMN protein expression that was obtained from the 7-point concentration data generated according to the above procedure for particular compounds of the present invention.
Table 6 provides the maximum fold increase of SMN protein that was obtained from the 7-point concentration data generated according to the above procedure for particular compounds of the present invention

Where [3] appears, read: Table 3 (title: production of full length SMN2 minigene mRNA), read-out: EC1.5x SMN protein.
The mark [4] stands for this setting: concentration increasing full length SMN2 minigene mRNA 1.5-fold vs vehicle, read-out: EC1.5x minigene.

Read-outs that look alike come from different tables or passages of the source. Where only a bound is given, the exact number is not on record here.

With `Cc1nc2ccc(-c3cc(=O)n4cc(N5CCN[C@H](C)C5)cc(C)c4n3)nn2n1` [Example 40, 9-methyl-7-[(3R)-3-methylpiperazin-1-yl]-2-(2-methyl-[1,2,4]triazolo[1,5-b]pyridazin-6-yl)pyrido[1,2-a]pyrimidin-4-one], the EC (1.5-fold) in assay [1] (setting [3]) turned out to be 0.0088 µM; in assay [2] it was 0.0148 µM. The maximal fold induction in assay [2] was 2.08.
Consider `Cc1nc2ncc(-c3cc(=O)n4cc(N5CCC(CN6CCCC6)CC5)ccc4n3)cn2n1` [Example 12, 7-[4-(pyrrolidin-1-ylmethyl)-1-piperidyl]-2-(2-methyl-[1,2,4]triazolo[1,5-a]pyrimidin-6-yl)-pyrido[1,2-a]pyrimidin-4-one], for which the EC (1.5-fold) in assay [1] (setting [4]) amounted to 0.161 µM. In assay [2], the EC (1.5-fold) was > 31.6 µM and the maximal fold induction worked out at 1.36.
For the compound `Cc1nc2ccc(-c3cc(=O)n4cc(N5C[C@H](C)N[C@@H](C)C5)ccc4n3)nn2n1` [Example 42, 7-[(3S,5S)-3,5-dimethylpiperazin-1-yl]-2-(2-methyl-[1,2,4]triazolo[1,5-b]pyridazin-6-yl)pyrido[1,2-a]pyrimidin-4-one], the EC (1.5-fold) in assay [1] (setting [3]) amounted to 0.0083 µM. Besides, in assay [2], the EC (1.5-fold) turned out to be 0.0629 µM and the maximal fold induction is 1.81.
Taken in the same sequence, the figures for `Cc1nc2ccc(-c3cc(=O)n4cc(N5C[C@@H]6C[C@H]7CNC[C@]76C5)ccc4n3)nn2n1` [Example 47, 7-((3aR,4aR,7aS)-hexahydro-1H-cyclobuta[1,2-c:1,4-c′]dipyrrol-2(3H)-yl)-2-(2-methyl-[1,2,4]triazolo[1,5-b]pyridazin-6-yl)-4H-pyrido[1,2-a]pyrimidin-4-one] were 0.0041 µM, 0.0249 µM and 1.87.
`CCN1CCN(c2cc(C)c3nc(-c4ccc5nc(C)nn5n4)cc(=O)n3c2)CC1` [Example 32, 7-(4-ethylpiperazin-1-yl)-9-methyl-2-(2-methyl-[1,2,4]triazolo[1,5-b]pyridazin-6-yl)pyrido[1,2-a]pyrimidin-4-one]: in assay [1] (setting [3]), the EC (1.5-fold) amounted to 0.0038 µM. In assay [2], the EC (1.5-fold) came out at 0.0725 µM and the maximal fold induction amounted to 1.97.
Take `Cc1nc2ccc(-c3cc(=O)n4cc(N5CCNC(C)(C)C5)cc(C)c4n3)nn2n1` [Example 28, 7-(3,3-dimethylpiperazin-1-yl)-9-methyl-2-(2-methyl-[1,2,4]triazolo[1,5-b]pyridazin-6-yl)pyrido[1,2-a]pyrimidin-4-one]: the EC (1.5-fold) in assay [1] (setting [3]) turned out to be 0.0096 µM. Also, in assay [2], the EC (1.5-fold) worked out at 0.0353 µM and the maximal fold induction turned out to be 1.79.
Taken in the same sequence, the figures for `Cc1nc2ccc(-c3cc(=O)n4cc(N5CCN6CCC[C@@H]6C5)cc(C)c4n3)nn2n1` [Example 34, 7-[(8aR)-3,4,6,7,8,8a-hexahydro-1H-pyrrolo[1,2-a]pyrazin-2-yl]-9-methyl-2-(2-methyl-[1,2,4]triazolo[1,5-b]pyridazin-6-yl)pyrido[1,2-a]pyrimidin-4-one] were 0.0028 µM, 0.0191 µM and 1.8.
On the same counts, the results for `Cc1nc2ccc(-c3cc(=O)n4cc(N5CCN6CCC[C@@H]6C5)ccc4n3)nn2n1` [Example 36, 7-[(8aR)-3,4,6,7,8,8a-hexahydro-1H-pyrrolo[1,2-a]pyrazin-2-yl]-2-(2-methyl-[1,2,4]triazolo[1,5-b]pyridazin-6-yl)pyrido[1,2-a]pyrimidin-4-one] are 0.0158 µM, 0.0997 µM and 1.92.
On the same counts, the results for `Cc1nc2ccc(-c3cc(=O)n4cc(N5CCCN(C)CC5)cc(C)c4n3)nn2n1` [Example 25, 9-methyl-7-(4-methyl-1,4-diazepan-1-yl)-2-(2-methyl-[1,2,4]triazolo[1,5-b]pyridazin-6-yl)pyrido[1,2-a]pyrimidin-4-one] are 0.0103 µM, 0.226 µM and 1.89.
Consider `Cc1nc2ncc(-c3cc(=O)n4cc(N5CC6(CNC6)C5)ccc4n3)cn2n1` [Example 7, 7-(2,6-diazaspiro[3.3]heptan-2-yl)-2-(2-methyl-[1,2,4]triazolo[1,5-a]pyrimidin-6-yl)pyrido[1,2-a]pyrimidin-4-one], for which the EC (1.5-fold) in assay [1] (setting [4]) turned out to be 0.107 µM. In assay [2], the EC (1.5-fold) was found to be 0.247 µM and the maximal fold induction is 1.78.
Regarding `Cc1nc2ccc(-c3cc(=O)n4cc(N5C[C@H]6CN(C)C[C@H]6C5)cc(C)c4n3)nn2n1` [Example 29, 7-[(3aS,6aR)-2-methyl-1,3,3a,4,6,6a-hexahydropyrrolo[3,4-c]pyrrol-5-yl]-9-methyl-2-(2-methyl-[1,2,4]triazolo[1,5-b]pyridazin-6-yl)pyrido[1,2-a]pyrimidin-4-one], the EC (1.5-fold) in assay [1] (setting [3]) was 0.0008 µM. In addition, in assay [2], the EC (1.5-fold) is 0.0077 µM and the maximal fold induction was 1.77.
Consider `Cc1nc2ncc(-c3cc(=O)n4cc(N5CCN[C@@H](C)C5)ccc4n3)cn2n1` [Example 16, 7-[(3S)-3-methylpiperazin-1-yl]-2-(2-methyl-[1,2,4]triazolo[1,5-a]pyrimidin-6-yl)pyrido[1,2-a]pyrimidin-4-one], for which the figures for the EC (1.5-fold) in assay [1] (setting [4]) and in assay [2] were 0.115 µM and 0.281 µM, respectively. Moreover, the maximal fold induction in assay [2] amounted to 1.71.
As for `Cc1nc2ncc(-c3cc(=O)n4cc(N5CCN[C@H](C)C5)ccc4n3)cn2n1` [Example 24, 7-[(3R)-3-methylpiperazin-1-yl]-2-(2-methyl-[1,2,4]triazolo[1,5-a]pyrimidin-6-yl)pyrido[1,2-a]pyrimidin-4-one], the EC (1.5-fold) in assay [1] (setting [3]) was 0.0348 µM. In addition, in assay [2], the EC (1.5-fold) was determined as 0.121 µM and the maximal fold induction amounted to 1.87.
In the case of `Cc1nc2ccc(-c3cc(=O)n4cc(N5C[C@@H](C)N[C@@H](C)C5)ccc4n3)nn2n1` [Example 22, 7-[(3R,5S)-3,5-dimethylpiperazin-1-yl]-2-(2-methyl-[1,2,4]triazolo[1,5-b]pyridazin-6-yl)pyrido[1,2-a]pyrimidin-4-one], the EC (1.5-fold) in assay [1] (setting [3]) amounted to 0.0434 µM. For the same compound, in assay [2], the EC (1.5-fold) was found to be 0.228 µM and the maximal fold induction was found to be 1.76.
On the same counts, the results for `Cc1nc2ncc(-c3cc(=O)n4cc(N5CC6(CN(C)C6)C5)ccc4n3)cn2n1` [Example 21, 7-(6-methyl-2,6-diazaspiro[3.3]heptan-2-yl)-2-(2-methyl-[1,2,4]triazolo[1,5-a]pyrimidin-6-yl)pyrido[1,2-a]pyrimidin-4-one] are 0.145 µM, 0.56 µM and 1.6.
For the compound `Cc1nc2ncc(-c3cc(=O)n4cc(N5CCNC(C)(C)C5)ccc4n3)cn2n1` [Example 6, 7-(3,3-dimethylpiperazin-1-yl)-2-(2-methyl-[1,2,4]triazolo[1,5-a]pyrimidin-6-yl)pyrido[1,2-a]pyrimidin-4-one], in assay [1] (setting [4]), the EC (1.5-fold) turned out to be 0.201 µM. Besides, in assay [2], the EC (1.5-fold) was determined as 2.15 µM and the maximal fold induction was 1.7.
As for `Cc1nc2ncc(-c3cc(=O)n4cc(N5CC6(CCNCC6)C5)ccc4n3)cn2n1` [Example 5, 7-(2,7-diazaspiro[3.5]nonan-2-yl)-2-(2-methyl-[1,2,4]triazolo[1,5-a]pyrimidin-6-yl)pyrido[1,2-a]pyrimidin-4-one], in assay [1] (setting [4]), the EC (1.5-fold) is < 0.0317 µM. Further, in assay [2], the EC (1.5-fold) was 0.106 µM and the maximal fold induction worked out at 1.99.

The record behind these values is patent US10208067B2, “Compounds for treating spinal muscular atrophy” (Hoffmann-La Roche Inc., priority 2015, dated 2019).
